# Experimental data as given in patent publication US20090149427A1, “PHARMACEUTICALLY ACCEPTABLE SALTS AND HYDRATES OF RISEDRONIC ACID” (Pliva Hrvatska d.o.o., priority 2005, published 2009).
# Conditions: humidity range 0-90% RH at 25° C., over a time period of 1200 minutes, FIG. 7
# Protocol: FIG. 7: Izotherm diagram for tri-sodium risedronate dihydrate showing the sorption and desorption isotherm for tri-sodium risedronate dihydrate measured in a humidity range from 0-90% RH at 25° C. at DVS 1 (Surface Measurement System).
smiles,measurement,value
O.O.O=P([O-])([O-])C(O)(Cc1cccnc1)P(=O)([O-])O.[Na+].[Na+].[Na+] [tri-sodium risedronate dihydrate],hygroscopicity (water absorption when humidity is raised),absorbs a minimum quantity of water
